Values of other authors, collected in patent US12458589B2, “Implantable polymer depots for the controlled release of therapeutic agents” (Foundry Therapeutics, Inc., priority 2018, dated 2025).
Like-named read-outs stand apart in the source and are kept apart here.

Key:
[1] = not given; remark: listed apart in the source

generally regarded as safe plasma level: 1,000 ng/mL
generally regarded as safe plasma level [1]: 1,000 ng/mL
SMILES: CCCCN1CCCCC1C(=O)Nc1c(C)cccc1C (centres unmarked) [bupivacaine]
